Results published in patent US9127003B2, “2-(azaindol-2-yl)benzimidazoles as PAD4 inhibitors” (Glaxo Group Limited, priority 2012, dated 2015).
Values joined by “and” are separate entries in the source; they are usually repeats but may differ in a detail not shown here. Equal entries are not always repeated. Structures can show the parent of a compound that is named as a salt.

Assays:
[1] = target: T1, Recombinant human PAD2 (residues 1-665) (Homo sapiens, UniProt Q9Y2J8); assay: PAD2 enzyme assay (NH3 release, BAEE substrate, fluorescence); type: biochemical; settings: PAD2 enzyme assay above or similar assays; read-out: mean pIC50 (converted)
T1 construct: Recombinant human PAD2 (residues 1-665); 6His-FLAG (N); made in house; host or cells: baculovirus-infected Sf9 insect cells
Protocol: Recombinant human PAD2 (residues 1-665) was expressed in baculovirus-infected Sf9 insect cells as an N-terminal 6His-FLAG-tagged fusion protein. Activity of the final product was determined using a FLINT NH3 release assay.
8 μl of PAD2 enzyme diluted to an assay concentration of 30 nM in assay buffer (100 mM HEPES, 50 mM NaCl, 2 mM DTT, 7.5% glycerol and 1.5 mM CHAPS pH 8), and added to wells containing 0.1 μl of various concentrations of compound or DMSO vehicle (0.8% final) in a Greiner high volume 384 well black plate. Following 30 mins pre-incubation at room temperature, the reaction was initiated by the addition of 4 μl of substrate buffer containing 180 uM N-a-benzoyl-L-arginine ethyl ester (BAEE), 100 mM HEPES, 50 mM NaCl, 240 uM CaCl2 (2H2O) and 2 mM DTT, pH 8.0. The reaction was stopped after 90 mins with the addition of 38 μl stop/detection buffer containing 50 mM EDTA, 2.6 mM phthalaldehyde and 2.6 mM DTT. Assay incubated at room temperature for 90 mins before measuring fluorescent signal (λex 405/λem 460) on an Envision plate reader (Perkin Elmer Life Sciences, Waltham, Mass., USA)

[2] = target: T2, Recombinant human PAD4 (residues 1-663) (Homo sapiens, UniProt Q9UM07); assay: PAD4 enzyme assay (NH3 release, BAEE substrate, fluorescence); type: biochemical; settings: PAD4 enzyme assay above (Conditions A or B) or similar assays; read-out: mean pIC50 (converted)
T2 construct: Recombinant human PAD4 (residues 1-663); GST (N, cleaved yes); made in house; host or cells: E. coli
Protocol: Recombinant human PAD4 (residues 1-663) was expressed in E. coli as an N-terminal GST-tagged fusion protein. During purification of the protein, the GST tag was removed by cleavage with PreScission Protease (GE Healthcare). Activity of the final product was determined using a FLINT NH3 release assay.
(§1) 8 μl of PAD4 enzyme diluted to an assay concentration of 75 nm in assay buffer (a).: (100 mM HEPES, 50 mM NaCl, 2 mM DTT and 0.6 mg/mIBSA pH 8), or in assay buffer (b).: (100 mM HEPES, 50 mM NaCl, 2 mM DTT, 7.5% glycerol and 1.5 mM CHAPS pH 8), and added to wells containing 0.1 μl of various concentrations of compound or DMSO vehicle (0.8% final) in a Greiner high volume 384 well black plate. Following 30 mins pre-incubation at room temperature, the reaction was initiated by the addition of 4 μl of substrate buffer containing 3 mM N-a-benzoyl-L-arginine ethyl ester (BAEE), 100 mM HEPES, 50 mM NaCl, 600 uM CaCl2 (2H2O) and 2 mM DTT, pH 8.0. The reaction was stopped after 100 mins with the addition of 38 μl stop/detection buffer containing 50 mM EDTA, 2.6 mM phthalaldehyde and 2.6 mM DTT. Assay incubated at room temperature for 90 mins before measuring fluorescent signal (λex 413/λem 476) on an Envision plate reader (Perkin Elmer Life Sciences, Waltham, Mass., USA)
as §1, with “of 30 nM” for “of 75 nm”, “buffer” for “buffer (a).:”, “mg/mIBSA” for “mg/mIBSA pH 8), or in assay buffer (b).: (100 mM HEPES, 50 mM NaCl, 2 mM DTT, 7.5% glycerol and 1.5 mM CHAPS”, “after 60” for “after 100”, “(λex 405/λem 460)” for “(λex 413/λem 476)”

T2 sequence (Q9UM07 whole entry, the tested form may be a part): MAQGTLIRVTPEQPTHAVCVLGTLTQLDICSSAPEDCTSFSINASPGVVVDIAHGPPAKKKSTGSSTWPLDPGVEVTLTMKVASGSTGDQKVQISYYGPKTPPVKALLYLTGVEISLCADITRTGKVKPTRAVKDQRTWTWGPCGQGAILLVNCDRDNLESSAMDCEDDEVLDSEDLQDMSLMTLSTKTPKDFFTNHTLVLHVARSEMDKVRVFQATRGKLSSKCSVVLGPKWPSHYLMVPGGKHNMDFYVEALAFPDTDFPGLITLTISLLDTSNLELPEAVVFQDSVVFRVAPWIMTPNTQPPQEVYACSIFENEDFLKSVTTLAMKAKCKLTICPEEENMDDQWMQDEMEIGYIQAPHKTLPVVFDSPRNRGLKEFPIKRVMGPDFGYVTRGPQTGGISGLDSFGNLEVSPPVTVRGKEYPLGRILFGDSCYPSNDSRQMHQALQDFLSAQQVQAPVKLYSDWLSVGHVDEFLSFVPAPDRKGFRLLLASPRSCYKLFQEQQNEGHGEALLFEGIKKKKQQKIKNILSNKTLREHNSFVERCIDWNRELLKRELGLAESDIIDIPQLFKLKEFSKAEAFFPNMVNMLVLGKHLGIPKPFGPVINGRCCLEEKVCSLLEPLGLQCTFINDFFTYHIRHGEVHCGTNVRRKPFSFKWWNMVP
T1 sequence (Q9Y2J8 whole entry, the tested form may be a part): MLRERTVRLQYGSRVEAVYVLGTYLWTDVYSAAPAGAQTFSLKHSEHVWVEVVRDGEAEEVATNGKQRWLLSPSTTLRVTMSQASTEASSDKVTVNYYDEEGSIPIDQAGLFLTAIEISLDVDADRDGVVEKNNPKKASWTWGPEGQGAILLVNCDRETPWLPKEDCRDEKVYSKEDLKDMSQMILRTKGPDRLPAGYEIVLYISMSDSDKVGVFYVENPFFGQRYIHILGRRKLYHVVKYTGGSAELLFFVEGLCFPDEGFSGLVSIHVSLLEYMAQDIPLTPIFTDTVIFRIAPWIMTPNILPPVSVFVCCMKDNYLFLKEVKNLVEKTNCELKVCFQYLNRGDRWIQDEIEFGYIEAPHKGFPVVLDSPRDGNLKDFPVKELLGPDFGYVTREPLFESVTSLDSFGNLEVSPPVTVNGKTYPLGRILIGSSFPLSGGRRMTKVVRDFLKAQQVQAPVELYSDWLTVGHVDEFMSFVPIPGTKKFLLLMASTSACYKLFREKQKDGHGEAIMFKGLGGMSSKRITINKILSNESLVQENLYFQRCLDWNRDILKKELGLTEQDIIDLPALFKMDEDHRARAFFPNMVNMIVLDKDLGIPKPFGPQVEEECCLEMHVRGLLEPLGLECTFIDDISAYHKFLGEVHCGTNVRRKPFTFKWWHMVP

IC50 [1]	IC50 [2]	SMILES
63.1 to 79.4 µM	0.0316 to 10 µM	CCn1c(-c2nc3cc(C(=O)N4CCC[C@H](N)C4)cc(OC)c3n2C)cc2cccnc21 [Example 19, (S)-(3-Aminopiperidin-1-yl)(2-(1-ethyl-1H-pyrrolo[2,3-b]pyridin-2-yl)-7-methoxy-1-methyl-1H-benzo[d]imidazol-5-yl)methanone, hydrochloride]
63.1 to 79.4 µM and > 79.4 µM	0.0316 to 10 µM and 0.126 µM	COc1cc(C(=O)N2CCC[C@@H](N)C2)cc2nc(-c3cc4cccnc4n3CC(F)(F)F)n(C)c12 [Example 11B, (R)-(3-Aminopiperidin-1-yl)(7-methoxy-1-methyl-2-(1-(2,2,2-trifluoroethyl)-1H-pyrrolo[2,3-b]pyridin-2-yl)-1H-benzo[d]imidazol-5-yl)methanone, hydrochloride]
63.1 to 79.4 µM	0.0316 to 10 µM	Cn1c(-c2cc3cccnc3n2CC2CC2)nc2cc(C(=O)N3CC[C@@H](O)[C@@H](N)C3)ccc21 [Example 13, ((3S,4R)-3-Amino-4-hydroxypiperidin-1-yl)(2-(1-(cyclopropylmethyl)-1H-pyrrolo[2,3-b]pyridin-2-yl)-1-methyl-1H-benzo[d]imidazol-5-yl)methanone, hydrochloride]
> 79.4 µM	0.0316 to 10 µM and 0.0794 µM	COc1cc(C(=O)N2CC[C@@H](O)[C@@H](N)C2)cc2nc(-c3cc4cccnc4n3CC3CC3)n(C)c12 [Example 14, ((3S,4R)-3-Amino-4-hydroxypiperidin-1-yl)(2-(1-(cyclopropylmethyl)-1H-pyrrolo[2,3-b]pyridin-2-yl)-7-methoxy-1-methyl-1H-benzo[d]imidazol-5-yl)methanone, hydrochloride]

The remaining lines, values behind:

SMILES	IC50 [1]	IC50 [2]
COc1cc(C(=O)N2CCC[C@@H](N)C2)cc2nc(-c3cc4cccnc4n3CC3CC3)n(C)c12 [Example 10B, (R)-(3-Aminopiperidin-1-yl)(2-(1-(cyclopropylmethyl)-1H-pyrrolo[2,3-b]pyridin-2-yl)-7-methoxy-1-methyl-1H-benzo[d]imidazol-5-yl)methanone, hydrochloride]	63.1 to 79.4 µM and > 79.4 µM	0.0316 to 10 µM and 0.0501 µM
Cn1c(-c2cc3cccnc3n2CC2CC2)nc2cc(C(=O)N3CCC[C@@H](N)C3)ccc21 [Example 5B, (R)-(3-Aminopiperidin-1-yl)(2-(1-(cyclopropylmethyl)-1H-pyrrolo[2,3-b]pyridin-2-yl)-1-methyl-1H-benzo[d]imidazol-5-yl)methanone, hydrochloride]	63.1 to 79.4 µM and > 79.4 µM	0.0316 to 10 µM and 0.2 µM
